How the values were obtained:
[1] = tested on: Huh-7; test: Increase of cellular triphosphate level in human HuH7 cells at 100 uM after 48 hrs by HPLC analysis; type: functional
[2] = tested on: Hepatitis C virus; test: Antiviral activity against HCV harboring NS5B polymerase S282T mutant infected in human HuH7 cells by cell-based replicon assay; type: functional, Hepacivirus hominis, Huh-7
[3] = tested on: Hepatocyte; test: Increase of cellular triphosphate level in human primary hepatocytes cells at 100 uM after 24 hrs by HPLC analysis; type: functional
[4] = tested on: Hepatitis C virus; test: Antiviral activity against HCV infected in human HuH7 cells by cell-based replicon assay; type: functional, Hepacivirus hominis, Huh-7
[5] = Cytotoxicity against human […] cells after 96 hrs by MTS assay; type: cell-based
[6] = Cytotoxicity against human HuH7 cells after 96 hrs by MTS assay; type: cell-based, Huh-7
[7] = Cytotoxicity against human CEM cells after 96 hrs by MTS assay; type: cell-based; conditions: CEM (CCRF-CEM) cells
[8] = Cytotoxicity against human HepG2 cells after 96 hrs by MTS assay; type: cell-based
[9] = Half life in human liver S9 fraction; type: ADME, subcellular
[10] = tested on: CCRF-CEM; test: Cytotoxicity against human CEM cells assessed as mitochondrial rDNA level up to 100 uM after 14 days by RT-PCR analysis; type: cell-based; conditions: 336 h
[11] = Half life in simulated gastrointestinal fluid; type: ADME
[12] = tested on: HepG2; test: Cytotoxicity against human HepG2 cells assessed as mitochondrial rDNA level up to 100 uM after 14 days by RT-PCR analysis; type: cell-based; conditions: hepg2, 336 h
[13] = Half life in simulated intestinal fluid; type: ADME
[14] = tested on: CCRF-CEM; test: Cytotoxicity against human CEM cells assessed as mitochondrial COX2 DNA level up to 100 uM after 14 days by RT-PCR analysis; type: cell-based; conditions: 336 h
[15] = Half life in human plasma; type: ADME, cell-free
[16] = tested on: HepG2; test: Cytotoxicity against human HepG2 cells assessed as mitochondrial COX2 DNA level up to 100 uM after 14 days by RT-PCR analysis; type: cell-based; conditions: hepg2, 336 h
[17] = Inhibition of HCV NS5B polymerase; design: species or system Hepacivirus hominis
[18] = tested on: Hepatitis C virus; test: Antiviral activity against HCV by cell-based replicon assay; type: functional, Hepacivirus hominis

Row | EC90 ([4]; Hepatitis C virus, Huh-7) [µM] | Compound | CC50 at 96 h [5] [µM] | CC50 at 96 h [6] [µM] | CC50 at 96 h [7] [µM] | CC50 at 96 h [8] [µM] | other results
1 | – | COc1nc(N)nc2c1ncn2[C@@H]1O[C@H](COP(=O)(N[C@@H](C)C(=O)OC(C)C)Oc2ccccc2)[C@@H](O)[C@@]1(C)F (stereo in doubt; 23b) | – | – | – | – | Activity [1]: 0.17 mM; EC90 [2]: 0.011 µM; Activity [3]: 0.44 mM; EC90 [4]: 0.008 µM
2 | 0.027 | CCOC(=O)[C@H](C)NP(=O)(OC[C@H]1O[C@@H](n2cnc3c(OCCF)nc(N)nc32)[C@](C)(F)[C@@H]1O)Oc1ccccc1 (some centres not stated) | – | – | – | – | –
3 | 0.0082 | COC(=O)[C@H](C)NP(=O)(OC[C@H]1O[C@@H](n2cnc3c(NC4CC4)nc(N)nc32)[C@](C)(F)[C@@H]1O)Oc1ccccc1 (some centres not stated) | > 100 | > 100 | 34 | > 100 | –
4 | 0.0088 | CC(C)OC(=O)[C@H](C)NP(=O)(OC[C@H]1O[C@@H](n2cnc3c(NC4CC4)nc(N)nc32)[C@](C)(F)[C@@H]1O)Oc1ccccc1 (some centres not stated) | 98 | 96 | > 100 | > 100 | –
5 | 2.38 | CCOC(=O)[C@H](C)NP(=O)(OC[C@H]1O[C@@H](n2cnc3c(O)nc(N)nc32)[C@](C)(F)[C@@H]1O)Oc1ccccc1 (some centres not stated) | > 100 | > 100 | > 100 | > 100 | –
6 | 0.026 | CCOC(=O)[C@H](C)NP(=O)(OC[C@H]1O[C@@H](n2cnc3c(NC4CCCC4)nc(N)nc32)[C@](C)(F)[C@@H]1O)Oc1ccccc1 (some centres not stated) | – | – | – | – | –
7 | 0.0098 | CCOC(=O)[C@H](C)NP(=O)(OC[C@H]1O[C@@H](n2cnc3c(NC4CC4)nc(N)nc32)[C@](C)(F)[C@@H]1O)Oc1ccccc1 (some centres not stated) | > 100 | > 100 | 45 | > 100 | –
8 | 0.0146 | CCCOc1nc(N)nc2c1ncn2[C@@H]1O[C@H](COP(=O)(N[C@@H](C)C(=O)OC)Oc2ccccc2)[C@@H](O)[C@@]1(C)F (some centres not stated) | 39 | 39 | 17 | 45 | –
9 | 0.024 | CCOC(=O)[C@H](C)NP(=O)(OC[C@H]1O[C@@H](n2cnc3c(NC4CCC4)nc(N)nc32)[C@](C)(F)[C@@H]1O)Oc1ccccc1 (some centres not stated) | – | – | – | – | –
10 | – | C[C@@]1(F)[C@H](O)[C@@H](COP(=O)(O)OP(=O)(O)OP(=O)(O)O)O[C@H]1n1cnc2c(=O)[nH]c(N)nc21 [PSI-352666] | – | – | – | – | IC50 [17]: 5.94 µM
11 | 0.0081 | COC(=O)[C@H](C)NP(=O)(OC[C@H]1O[C@@H](n2cnc3c(OC)nc(N)nc32)[C@](C)(F)[C@@H]1O)Oc1ccccc1 (some centres not stated) | > 100 | > 100 | 20 | 71 | –
12 | 0.019 | CC(C)OC(=O)[C@H](C)NP(=O)(OC[C@H]1O[C@@H](n2cnc3c(N4CCC4)nc(N)nc32)[C@](C)(F)[C@@H]1O)Oc1ccccc1 (some centres not stated) | 74 | 53 | 74 | 100 | –
13 | – | COc1nc(N)nc2c1ncn2[C@@H]1O[C@H](COP(=O)(N[C@@H](C)C(=O)OC(C)C)Oc2ccccc2)[C@@H](O)[C@@]1(C)F (stereo in doubt; 23) | > 100 | > 100 | > 100 | 62 | half-life [9]: 0.2 h; Activity [1]: 0.12 mM; EC90 [2]: 0.024 µM; Activity [10]: Non-toxic; half-life [11]: 14 h; Activity [12]: Non-toxic; half-life [13]: > 20 h; Activity [14]: Non-toxic; half-life [15]: > 24 h; Activity [3]: 0.12 mM; EC90 [4]: 0.02 µM; Activity [16]: Non-toxic
14 | 0.007 | CCOC(=O)[C@H](C)NP(=O)(OC[C@H]1O[C@@H](n2cnc3c(N4CCC4)nc(N)nc32)[C@](C)(F)[C@@H]1O)Oc1ccccc1 (some centres not stated) | 84 | 84 | 39 | 75 | –
15 | – | C[C@@]1(F)[C@H](O)[C@@H](CO)O[C@H]1n1cnc2c(O)nc(N)nc21 | – | – | – | – | EC90 [18]: 69.2 µM
16 | 0.446 | C[C@H](NP(=O)(OC[C@H]1O[C@@H](n2cnc3c(O)nc(N)nc32)[C@](C)(F)[C@@H]1O)Oc1ccccc1)C(=O)OC1CCCCC1 (some centres not stated) | > 100 | > 100 | > 100 | > 100 | –
17 | 0.047 | CCOC(=O)[C@H](C)NP(=O)(OC[C@H]1O[C@@H](n2cnc3c(SCC)nc(N)nc32)[C@](C)(F)[C@@H]1O)Oc1ccccc1 (some centres not stated) | – | – | – | – | –
18 | 0.013 | CCCOc1nc(N)nc2c1ncn2[C@@H]1O[C@H](COP(=O)(N[C@@H](C)C(=O)OCC)Oc2ccccc2)[C@@H](O)[C@@]1(C)F (some centres not stated) | – | – | – | – | –
19 | 0.02 | CCOC(=O)[C@H](C)NP(=O)(OC[C@H]1O[C@@H](n2cnc3c(OCCOC)nc(N)nc32)[C@](C)(F)[C@@H]1O)Oc1ccccc1 (some centres not stated) | – | – | – | – | –
20 | 0.01 | CCOC(=O)[C@H](C)NP(=O)(OC[C@H]1O[C@@H](n2cnc3c(OCC)nc(N)nc32)[C@](C)(F)[C@@H]1O)Oc1ccccc1 (some centres not stated) | 68 | 47 | 37 | 61 | –
21 | 0.033 | CCCOc1nc(N)nc2c1ncn2[C@@H]1O[C@H](COP(=O)(N[C@@H](C)C(=O)OC(C)C)Oc2ccccc2)[C@@H](O)[C@@]1(C)F (some centres not stated) | > 100 | 49 | 44 | > 100 | –

Row | Compound | EC90 ([4]; Hepatitis C virus, Huh-7) [µM] | CC50 at 96 h [5] [µM] | CC50 at 96 h [6] [µM] | CC50 at 96 h [7] [µM] | CC50 at 96 h [8] [µM] | other results
22 | CCOc1nc(N)nc2c1ncn2[C@@H]1O[C@H](COP(=O)(N[C@@H](C)C(=O)OC(C)C)Oc2ccccc2)[C@@H](O)[C@@]1(C)F (some centres not stated) | 0.02 | > 100 | 59 | 93 | > 100 | –
23 | CC(C)OC(=O)[C@H](C)NP(=O)(OC[C@H]1O[C@@H](n2cnc3c(O)nc(N)nc32)[C@](C)(F)[C@@H]1O)Oc1ccccc1 (some centres not stated) | 0.75 | > 100 | > 100 | > 100 | > 100 | EC90 ([2]; Hepatitis C virus, Huh-7): 0.61 µM
24 | COc1nc(N)nc2c1ncn2[C@@H]1O[C@H](CO[P@](=O)(N[C@@H](C)C(=O)OC(C)C)Oc2ccccc2)[C@@H](O)[C@@]1(C)F | 0.027 | – | – | – | – | Activity [1]: 0.07 mM; EC90 ([2]; Hepatitis C virus, Huh-7): 0.038 µM; Activity [3]: 0.14 mM
25 | COC(=O)[C@H](C)NP(=O)(OC[C@H]1O[C@@H](n2cnc3c(N4CCC4)nc(N)nc32)[C@](C)(F)[C@@H]1O)Oc1ccccc1 (some centres not stated) | 0.09 | > 100 | > 100 | 75 | > 100 | half-life [9]: 0.4 h; Activity [1]: 0.16 mM; EC90 ([2]; Hepatitis C virus, Huh-7): 0.04 µM; Activity [10]: Non-toxic; half-life [11]: > 20 h; Activity [12]: Non-toxic; half-life [13]: > 20 h; Activity [14]: Non-toxic; half-life [15]: 11.6 h; Activity [3]: 0.05 mM; Activity [16]: Non-toxic
26 | CCOc1nc(N)nc2c1ncn2[C@@H]1O[C@H](COP(=O)(N[C@@H](C)C(=O)OC)Oc2ccccc2)[C@@H](O)[C@@]1(C)F (some centres not stated) | 0.016 | > 100 | > 100 | 74 | > 100 | EC90 ([2]; Hepatitis C virus, Huh-7): 0.016 µM
27 | C[C@H](NP(=O)(OC[C@H]1O[C@@H](n2cnc3c(O)nc(N)nc32)[C@](C)(F)[C@@H]1O)Oc1ccccc1)C(=O)OC1CCCC1 (some centres not stated) | 0.18 | > 100 | > 100 | > 100 | > 100 | half-life [9]: 0.2 h; Activity [1]: 0.06 mM; EC90 ([2]; Hepatitis C virus, Huh-7): 0.12 µM; Activity [10]: Non-toxic; half-life [11]: 15 h; Activity [12]: Non-toxic; half-life [13]: > 20 h; Activity [14]: Non-toxic; half-life [15]: > 24 h; Activity [3]: 0.04 mM; Activity [16]: Non-toxic
28 | CCOC(=O)[C@H](C)NP(=O)(OC[C@H]1O[C@@H](n2cnc3c(OC)nc(N)nc32)[C@](C)(F)[C@@H]1O)Oc1ccccc1 (some centres not stated) | 0.0074 | 65 | > 100 | 55 | 62 | EC90 ([2]; Hepatitis C virus, Huh-7): 0.011 µM

From ChEMBL document CHEMBL1671830, “Discovery of PSI-353661, a Novel Purine Nucleotide Prodrug for the Treatment of HCV Infection” (ACS Med Chem Lett, 2011)
